Reference: publication PMC10489748, “The Anti-Breast Cancer Stem Cell Potency of Copper(I)-Non-Steroidal Anti-Inflammatory Drug Complexes” (Molecules, 2023)
Where two headings read alike, the source gives them in different places.

Assays:
[1] = tested on: HMLER-shEcad mammospheres; design: method as in PMID 26806362, PMID 31588328, PMID 28932846, PMID 31209956; settings: 120 h incubation, ref [14],[37],[39],[40], read-out: Mammosphere IC50; cited from earlier work
[2] = tested on: HMLER-shEcad cells; settings: 72 h incubation, cited from earlier work
[3] = tested on: HMLER cells; settings: 72 h incubation, cited from earlier work
[4] = tested on: HMLER cells; test: MTT cytotoxicity assay, bulk breast cancer cells; assay type: cell-based, human; settings: 72 h incubation
Procedure: (§1) Exponentially growing cells were seeded at a density of approximately 5 × 10^3 cells per well in 96-well flat-bottomed microplates, and allowed to attach for 24 h prior to the addition of compounds. […] Stock solutions of the compounds were prepared as 10 mM DMSO solutions, and diluted using cell media. […] After 72 h, 20 μL of MTT (4 mg mL^−1 in PBS) was added to each well, and the plates were incubated for an additional 4 h at 37 °C. The media/MTT mixture was eliminated, and DMSO (100 μL per well) was added to dissolve the formazan precipitates. […] Absorbance values were normalised to (DMSO-containing) control wells, and plotted as concentration of compound versus % cell viability. IC50 values were interpolated from the resulting dose-dependent curves.

[5] = tested on: HMLER-shEcad mammospheres; test: Mammosphere viability assay (TOX8); assay type: cell-based, human; settings: TOX8, 120 h incubation
Procedure: HMLER-shEcad cells (5 × 10^3) were plated in ultralow-attachment 96-well plates (Corning) and incubated in MEGM supplemented with B27 (Invitrogen), 20 ng mL^−1 EGF, and 4 μg mL^−1 heparin (Sigma), for 5 days. Studies were also conducted in the presence of 1–3, cisplatin and salinomycin (0–133 µM). Mammospheres treated with 1–3, cisplatin, and salinomycin (0.5 µM, 5 days) were counted and imaged, using an inverted microscope. The viability of the mammospheres was determined via the addition of a resazurin-based reagent, TOX8 (Sigma). After incubation for 16 h, the fluorescence of the solutions was read at 590 nm (λex = 560 nm). Viable mammospheres reduce the amount of the oxidised TOX8 form (blue) and, concurrently, increase the amount of the fluorescent TOX8 intermediate (red), indicating the degree of mammosphere cytotoxicity caused by the test compound. Fluorescence values were normalised to DMSO-containing controls, and plotted as concentration of test compound versus % mammospheres viability. IC50 values were interpolated from the resulting dose-dependent curves. The reported IC50 values are the average of two independent experiments, each consisting of two replicates per concentration level (n = 4).

[6] = tested on: BEAS-2B cells; test: MTT cytotoxicity assay, non-cancerous bronchial epithelium cells; assay type: cell-based; settings: 72 h incubation
Procedure: Exponentially growing cells were seeded at a density of approximately 5 × 10^3 cells per well in 96-well flat-bottomed microplates, and allowed to attach for 24 h prior to the addition of compounds. Various concentrations of the test compounds (0.19–100 μM) were added, and the plates were incubated for 72 h at 37 °C (total volume 200 μL). Stock solutions of the compounds were prepared as 10 mM DMSO solutions, and diluted using cell media. The final concentration of DMSO in each well was ≤1 %. After 72 h, 20 μL of MTT (4 mg mL^−1 in PBS) was added to each well, and the plates were incubated for an additional 4 h at 37 °C. The media/MTT mixture was eliminated, and DMSO (100 μL per well) was added to dissolve the formazan precipitates. The optical density was measured at 550 nm, using a 96-well multiscanner autoreader. Absorbance values were normalised to (DMSO-containing) control wells, and plotted as concentration of compound versus % cell viability. IC50 values were interpolated from the resulting dose-dependent curves.

[7] = tested on: HMLER-shEcad cells; test: Intracellular ROS assay (DCFH-DA); assay type: cell-based, human; settings: 2 × IC50 value
Procedure: HMLER-shEcad cells (5 × 10^3) were seeded in each well of a 96-well plate. […] The intracellular ROS level was determined via measurement of the fluorescence of the solutions in each well at 529 nm (λex = 504 nm).

[8] = tested on: HMLER-shEcad cells; test: MTT cytotoxicity assay, breast CSCs; assay type: cell-based, human; settings: 72 h incubation
Procedure: as §1

[9] = Water–octanol partition coefficient (LogP), shake-flask method and ICP-MS; assay type: physicochemical; settings: water/1-octanol, room temperature, 24 h
Procedure: The 1-octanol used in this experiment was pre-saturated with water. […] The tube was shaken at room temperature for 24 h. The two phases were separated via centrifugation, and the copper content in the water phase was determined via ICP-MS.

[10] = ref [1,2] of the SI (Eskandari et al. 2016; Eskandari, Suntharalingam 2019)

Structure (SMILES): N.N.[Cl][Pt][Cl] [cisplatin]
- IC50 [1]: 13.5 ± 2.34 µM
- IC50 ([2]; ref [14],[37],[39],[40]): 5.65 ± 0.3 µM
- IC50 ([3]; ref [14],[37],[39],[40]): 2.57 ± 0.02 µM

Structure (SMILES): O=C([O-])Cc1ccccc1Nc1c(Cl)cccc1Cl.[Cu+].c1ccc(P(c2ccccc2)c2ccccc2)cc1.c1ccc(P(c2ccccc2)c2ccccc2)cc1 [compound 1, [Cu^I(diclofenac)(PPh3)2]]
- IC50 [4]: 2.42 ± 0.1 µM
- IC50 [5]: 18.2 ± 2.02 µM
- IC50 [6]: 4.32 ± 0.13 µM
- Increase in ROS levels compared to untreated control cells ([7]; 1 h exposure): 76%
- Change of intracellular ROS status ([7]; exposure beyond 1 h (3–24 h)): did not markedly alter
- IC50 [8]: 4.61 ± 0.18 µM

Structure (SMILES): COc1ccc2cc(C(C)C(=O)[O-])ccc2c1.[Cu+].c1ccc(P(c2ccccc2)c2ccccc2)cc1.c1ccc(P(c2ccccc2)c2ccccc2)cc1 [compound 2, [Cu^I(naproxen)(PPh3)2]]
- IC50 [4]: 2.36 ± 0.03 µM
- IC50 [5]: 11.8 ± 0.7 µM
- IC50 [6]: 4.11 ± 0.001 µM
- Increase in ROS levels ([7]; 16 h exposure): 41%
- Increase in ROS levels ([7]; 24 h exposure): 32%
- IC50 [8]: 4.46 ± 0.08 µM

Structure (SMILES): O=C([O-])c1ccccc1O.[Cu+].c1ccc(P(c2ccccc2)c2ccccc2)cc1.c1ccc(P(c2ccccc2)c2ccccc2)cc1 [compound 3, [Cu^I(salicylate)(PPh3)2]]
- IC50 [4]: 2.13 ± 0.002 µM
- LogP [9]: 0.82 ± 0.002
- IC50 [5]: 13.6 ± 0.74 µM
- IC50 [6]: 3.53 ± 0.21 µM
- Increase in ROS levels ([7]; 16 h exposure): 191%
- Increase in ROS levels ([7]; 24 h exposure): 75%
- IC50 [8]: 4.55 ± 0.001 µM

Structure (SMILES): O=C(O)Cc1ccccc1Nc1c(Cl)cccc1Cl [diclofenac]
- IC50 [2, 10]: 54.74 ± 0.23 µM
- IC50 [3, 10]: 69.5 ± 8.7 µM

Structure (SMILES): COc1ccc2cc([C@H](C)C(=O)O)ccc2c1 [naproxen]
- IC50 [2, 10]: > 100 µM
- IC50 [3, 10]: > 100 µM

Structure (SMILES): CC[C@@H](C(=O)[C@@H](C)[C@@H](O)[C@H](C)[C@@H]1O[C@@H]([C@@H](CC)C(=O)O)CC[C@@H]1C)[C@H]1O[C@]2(C=C[C@@H](O)[C@]3(CC[C@@](C)([C@H]4CC[C@](O)(CC)[C@H](C)O4)O3)O2)[C@H](C)C[C@@H]1C [salinomycin]
- IC50 [1]: 18.5 ± 1.5 µM
- IC50 ([2]; ref [14],[37],[39],[40]): 4.23 ± 0.35 µM
- IC50 ([3]; ref [14],[37],[39],[40]): 11.4 ± 0.42 µM
